Experimental data published in patent EP0618207B1, “Substituted pyridopyrimidines as antihypertensives” (AMERICAN HOME PRODUCTS CORPORATION, priority 1993, dated 1994).

Columns and labels:
[1] = metabolic studies in rats; assay type: in vivo
[2] = tested on: Goldblatt (2K-1C) hypertensive rat model; test: Goldblatt (2K-1C) hypertensive rat model, antihypertensive action; assay type: in vivo, Sprague-Dawley rats
Protocol: In further accordance with their ability to antagonize angiotensin II, the compounds of this invention show antihypertensive action in the following Goldblatt (2K-1C) hypertensive rat model. Sprague-Dawley rats weighing 150 g were anesthetized with pentobarbital (50 mg/kg ip) and the left renal artery was clipped with a silver wire bent to an internal diameter of 0.2 mm. The hypertension was established 4-7 weeks after clipping. At that time, the animals were anesthetized with pentobarbital (50 mg/kg ip) and the right carotid artery was cannulated. The catheter was passed subcutaneously to the dorsal side of the neck and exteriorized. The animals were fasted overnight but allowed access to water and the experiment was performed the next morning. The carotid catheter was connected to a blood pressure transducer which was linked to a MI^2 computer data acquisition system or to a Grass or Beckman recorder for the recording of mean arterial pressure (MAP) and heart rate. For oral administration, the rats were given either a compound of the invention (1, 3 or 10 mg/kg), losartan (30 mg/kg) as a standard or vehicle (0.5% methyl cellulose in distilled water) by gastric gavage (ig) in a volume of 5 mL/kg. For intravenous administration, the rats were given either a compound of the invention (0.03, 0.1, 1, 3 or 10 mg/kg) or vehicle (≦50% NaHCO3 in distilled water) in a volume of 1 mL/kg. In all experiments, saline was infused into the arterial cannula at 5 µL/min throughout the experiment to maintain patency of the cannula. Each compound was administered to a separate group of 6-12 rats and MAP and heart rate were recorded for 24 h. […] At each time point following dosing, averages were determined for absolute MAP, change in MAP (in mm Hg), and heart rate for all animals, and the standard error of the mean was calculated.

A II-infused rat model = test: A II-infused rat model, antihypertensive action; assay type: in vivo, Rats; details: 3 mg/kg id, four hours post-administration
Protocol: In accordance with their ability to antagonize angiotensin II, the compounds of this invention show antihypertensive action in the following A II-infused rat model. Rats are anesthetized with Dial-Urethane (0.60 mL/kg, ip) and the trachea cannulated with PE 240. Either one femoral artery and both femoral veins or the carotid artery and the corresponding jugular vein are cannulated with PE 50. If the jugular vein is cannulated, two cannulas are placed in the one vein. The initial portion of the duodenum (just distal to the stomach) is cannulated with PE 50 via a small midline incision. Arterial pressure and heart rate are measured from the arterial cannula. Ten to 15 min are allowed following surgery for stabilization of arterial pressure. Ganglion blockade is then produced by intravenous administration of mecamylamine at 3 mg/kg (1 mL/kg of a 3 mg/mL solution). Ganglion blockade causes a fall in arterial pressure of about 50 mmHg. Mecamylamine is given every 90 min throughout the remainder of the experiment. An A II infusion is then begun into the other venous cannula at 0.25 µg/kg/min (at 9.6 µL/min). The A II infusion returns arterial pressure to or slightly above the control level. Once arterial pressure has stabilized with the A II infusion, baseline values for mean arterial pressure (MAP) and heart rate are taken. […]

Row | identified as metabolite of the compound of Example 3 of U.S. Patent No. 5,149,599 [1] | SMILES | presence of metabolite (duration and amount), Example 4 compared with Example 6 [1] | maximum decrease in MAP ([2]; 0.1 mg/kg iv, 4 hours post-administration) | maximum decrease in MAP ([2]; 10 mg/kg ig, 23 hours post-administration) | maximum decrease in MAP ([2]; 10 mg/kg ig, 9 hours post-administration) | lowered the A II dependent blood pressure by an average of (A II-infused rat model)
1 | significant metabolites | Cc1nc(C)c2c(O)cc(=O)n(Cc3ccc(-c4ccccc4-c4nnn[nH]4)cc3)c2n1 [Example 4, 2,4-Dimethyl-5-hydroxy-8-[2'-(1H-tetrazol-5-yl)biphenyl-4-ylmethyl]-8H-pyrido[2,3-d]pyrimidin-7-one Sesquihydrate] | present significantly longer and in greater amounts than the latter | 67 mm Hg | 66 mm Hg | – | –
2 | significant metabolites | Cc1nc(C)c2c(n1)N(Cc1ccc(-c3ccccc3-c3nn[nH]n3)cc1)C(=O)CC2O (stereo not shown) [Example 6, 5-Hydroxy-2,4-dimethyl-8-[2'-(1H-tetrazol-5-yl)-biphenyl-4-ylmethyl]-6,8-dihydro-5H-pyrido[2,3-d]pyrimidine-7-one Hydrate 0.4 Etherate] | – | – | – | 71 mm Hg | –
3 | – | Cc1nc(CO)nc2c1CCC(=O)N2Cc1ccc(-c2ccccc2-c2nnn[nH]2)cc1 [Example 2, 2-Hydroxymethyl-4-methyl-8-[2'-(1H-tetrazol-5-yl)biphenyl-4-ylmethyl]-5,8-dihydro-6H-pyrido[2,3-d]pyrimidin-7-one] | – | – | – | – | 30%
